# Where two headings read alike, the source gives them in different places.
# System: yeast Saccharomyces cerevisiae X2180-1B
# Assay: Fungicidal activity / MIC at 50° C. versus 30° C., yeast survival in YEPD broth pH 3.4
# Type: cell-based
# Conditions: for Importance: rating as pasteurisation adjunct
# Description: In the table the minimum inhibitory concentration (MIC) is given for each compound as well as the molecular weight (M.W.), the logPoct and a rating of its importance. […] The logPoct, that is the logarithm of the partition coefficient of the relevant compound in octanol and thus a measure of its […], was determined using […]™ software from the CHEMOFFICE ULRA ENHANCED 2000™ software package (version 5.5) that is commercially available from CambridgeSoft.
# (§1) YEPD contained glucose, 20 g/l, peptone 20 g/l and yeast extract 10 g/l. Rows of 30 ml tubes containing 10 ml YEPD, pH 3.4, were equilibrated at the required temperature for 7 minutes in a water bath, before inoculation with 10^4 cells/ml of the yeast Saccharomyces cerevisiae X2180-1B. Tubes were held at temperature for 10 minutes before being cooled rapidly in cold water for 5 minutes. Tubes were then incubated for 48 hours at 25° C. to allow surviving yeasts to grow out, and form discrete colonies.
# as §1, §1, §1
# [1] = Saccharomyces cerevisiae, minimum inhibitory concentration, 50° C., read-out: MIC50
# [2] = Saccharomyces cerevisiae, minimum inhibitory concentration, 50° C., given as ppm, read-out: MIC50
# [3] = minimum inhibitory concentration, 50° C.
# [4] = Saccharomyces cerevisiae, read-out: MIC50
Molecule,MIC [1],Importance,also measured
CCCCCCCC(=O)OCCc1ccccc1 [Phenethyl octanoate],40 mM,Mod,–
CCCCCCCCCCCC(=O)OC [Methyl laurate],40 mM,"High (High effects compounds, most preferred, generally showed at least a 5 fold decrease in MIC, minimum inhibitory concentration at 50 °C compared with 30° C.)",–
C=CC(C)(O)CCC=C(C)CCC=C(C)C (stereo not shown) [Nerolidol],1.5 mM,"High (High effects compounds, most preferred, generally showed at least a 5 fold decrease in MIC, minimum inhibitory concentration at 50 °C compared with 30° C.)",–
C=CC(C)(CCC=C(C)C)OC(=O)CC (stereo not shown) [Linalyl propionate],20 mM,Mod,–
CCCCCCCCCCC(=O)OC [Methyl undecanoate],50 mM,"High (High effects compounds, most preferred, generally showed at least a 5 fold decrease in MIC, minimum inhibitory concentration at 50 °C compared with 30° C.)",–
CCCCCCCCCCCCCC=O [Myristaldehyde],40 mM,Mod,–
CCCCCCCCCCCCCCO [Tetradecanol],50 mM,Mod,–
CCCCCCCCCCCC(=O)OCCCC [Butyl laurate],100 mM,Low,–
methyl decenoate,–,–,fungicidal activity at 30° C. (30° C.): no fungicidal activity; fungicidal activity when heated to 50° C. (50° C.): significant fungicidal activity
CCCCCCCCCCC(=O)OCC [Ethyl undecanoate],50 mM,Mod,–
CCCCCCCCCCC=CC=O [2-Tridecenal],< 0.05 mM,"High (High effects compounds, most preferred, generally showed at least a 5 fold decrease in MIC, minimum inhibitory concentration at 50 °C compared with 30° C.)",MIC50 [2]: < 9.8 µg/mL
CCCCCC(=O)OCCc1ccccc1 [Phenethyl hexanoate],10 mM,"High (High effects compounds, most preferred, generally showed at least a 5 fold decrease in MIC, minimum inhibitory concentration at 50 °C compared with 30° C.)",–
C=CCCCCCCCCC(=O)OCC [Ethyl 10-undecenoate],50 mM,"High (High effects compounds, most preferred, generally showed at least a 5 fold decrease in MIC, minimum inhibitory concentration at 50 °C compared with 30° C.)",–
CCCCCCCCC(=O)OCC [Ethyl nonanoate],10 mM,"High (High effects compounds, most preferred, generally showed at least a 5 fold decrease in MIC, minimum inhibitory concentration at 50 °C compared with 30° C.)",–
C=C(C)C1CC=C(C)C(OC(=O)CC)C1 (stereo not shown) [Carvyl propionate],–,Mod,MIC50 [3]: 5 mM
CCCCCCCCCC(C)=O [2-Undecanone],–,"High (High effects compounds, most preferred, generally showed at least a 5 fold decrease in MIC, minimum inhibitory concentration at 50 °C compared with 30° C.)",MIC [4]: 1 mM
CCCCCCOC(=O)CCCCC [Hexyl hexanoate],30 mM,"High (High effects compounds, most preferred, generally showed at least a 5 fold decrease in MIC, minimum inhibitory concentration at 50 °C compared with 30° C.)",–
C=CC(C)(CCC=C(C)C)OC(C)=O (stereo not shown) [Linalyl acetate],–,Mod,MIC [4]: 10 mM
CCCCCCCCCCCCCO [Tridecanol],0.05 mM,"High (High effects compounds, most preferred, generally showed at least a 5 fold decrease in MIC, minimum inhibitory concentration at 50 °C compared with 30° C.)",–
CC(C)=CCC/C(C)=C\COC(=O)C(C)C [Neryl isobutyrate],30 mM,"High (High effects compounds, most preferred, generally showed at least a 5 fold decrease in MIC, minimum inhibitory concentration at 50 °C compared with 30° C.)",–
CCCCCCCCCCOC(=O)CCC [Decyl butyrate],70 mM,Low,–
CCCCCCCOC(=O)CCC [Heptyl butyrate],2 mM,"High (High effects compounds, most preferred, generally showed at least a 5 fold decrease in MIC, minimum inhibitory concentration at 50 °C compared with 30° C.)",–
CCCCCCCCCCCCCCCCO [Hexadecanol],100 mM,Low,–
w-6-Hexadecalactone,–,Low,MIC50 [3]: 50 mM
CCCCCCCCC(=O)OC [Methyl nonanoate],2 mM,"High (High effects compounds, most preferred, generally showed at least a 5 fold decrease in MIC, minimum inhibitory concentration at 50 °C compared with 30° C.)",–
CCC(=O)OC/C=C(\C)CCC=C(C)C [Geranyl propionate],12 mM,"High (High effects compounds, most preferred, generally showed at least a 5 fold decrease in MIC, minimum inhibitory concentration at 50 °C compared with 30° C.)",–

Molecule,MIC [1],Importance,also measured
C=CCCCCCCCCC(=O)OCCCC [Butyl 10-undecenoate],40 mM,Mod,–
CCCCCOC(=O)CCCCC [Amyl hexanoate],2 mM,"High (High effects compounds, most preferred, generally showed at least a 5 fold decrease in MIC, minimum inhibitory concentration at 50 °C compared with 30° C.)",–
CC=CCCCCCCCC(=O)OC [Methyl-9-undecenoate],40 mM,"High (High effects compounds, most preferred, generally showed at least a 5 fold decrease in MIC, minimum inhibitory concentration at 50 °C compared with 30° C.)",–
O=C(OCc1ccccc1)c1ccccc1O [Benzyl salicylate],50 mM,Low,–
O=C(OCc1ccccc1)c1ccccc1 [Benzyl benzoate],20 mM,Mod,–
CCCCCCCCCCCCCCC(=O)O [Pantadecanoic acid],–,Low,MIC50 [3]: 80 mM
CCCCCCC(=O)OCCCC [Butyl heptanoate],5 mM,"High (High effects compounds, most preferred, generally showed at least a 5 fold decrease in MIC, minimum inhibitory concentration at 50 °C compared with 30° C.)",–
CCCCCCCCCOC(C)=O [Nonyl acetate],5 mM,"High (High effects compounds, most preferred, generally showed at least a 5 fold decrease in MIC, minimum inhibitory concentration at 50 °C compared with 30° C.)",–
CCCCCCCC(=O)OCCCCCC [Hexyl octanoate],10 mM,Mod,–
O=C1CCCCCCCCCCCCCCO1 [w-Pentadecalactone],–,Low,MIC50 [3]: 60 mM
CCCCCCCCOC(=O)CCC [Octyl butyrate],40 mM,"High (High effects compounds, most preferred, generally showed at least a 5 fold decrease in MIC, minimum inhibitory concentration at 50 °C compared with 30° C.)",–
C=C1CC/C=C(\C)CC[C@@H]2[C@@H]1CC2(C)C [β-Caryophylene],–,Low,MIC50 [3]: 70 mM
CCCCCCCCCC(=O)OC [Methyl decanoate],2 mM,"High (High effects compounds, most preferred, generally showed at least a 5 fold decrease in MIC, minimum inhibitory concentration at 50 °C compared with 30° C.)",–
CCCCCCCCCCCC(=O)OCC [Ethyl laurate],80 mM,Mod,–
CC(C)CCOC(=O)c1ccccc1O [Isoamyl salicylate],15 mM,Mod,–
CCCC(=O)OC/C=C(\C)CCC=C(C)C [Geranyl butyrate],40 mM,"High (High effects compounds, most preferred, generally showed at least a 5 fold decrease in MIC, minimum inhibitory concentration at 50 °C compared with 30° C.)",–
CCCCCCCCCCCCOC(C)=O [Lauryl acetate],40 mM,Mod,–
CCCCCCCCCCCCCC(=O)O [Myristic acid],50 mM,"High (High effects compounds, most preferred, generally showed at least a 5 fold decrease in MIC, minimum inhibitory concentration at 50 °C compared with 30° C.)",–
CCCCCC(=O)OCCC(C)C [Isoamyl hexanoate],5 mM,"High (High effects compounds, most preferred, generally showed at least a 5 fold decrease in MIC, minimum inhibitory concentration at 50 °C compared with 30° C.)",–
O=C(c1ccccc1)C(O)c1ccccc1 (stereo not shown) [Benzoin],–,10,MIC [4]: 10 mM
CCCCCCCCCC=CC=O [2-Dodecenal],< 0.05 mM,"High (High effects compounds, most preferred, generally showed at least a 5 fold decrease in MIC, minimum inhibitory concentration at 50 °C compared with 30° C.)",MIC50 [2]: < 9 µg/mL
CCCCCCCCCC(=O)OCC [Ethyl decanoate],40 mM,"High (High effects compounds, most preferred, generally showed at least a 5 fold decrease in MIC, minimum inhibitory concentration at 50 °C compared with 30° C.)",–
C=CCOC(=O)CCC1CCCCC1 [Allyl cyclohexanepropionate],1 mM,"High (High effects compounds, most preferred, generally showed at least a 5 fold decrease in MIC, minimum inhibitory concentration at 50 °C compared with 30° C.)",–
CCCCCCCCCCCCCC(=O)OC [Methyl myristate],60 mM,Low,–
CCCC(=O)OC/C=C(/C)CCC=C(C)C [Neryl butyrate],50 mM,Mod,–
CCCCCCCC(=O)OCCCCC [Amyl octanoate],60 mM,Mod,–

# — patent US6579556B2, “Ambient stable beverage” (Lipton, division of Conopco, Inc., priority 2000, dated 2003)
